# Positions of bridges follow the written chain, without caps; N, C: chain ends. Non-standard residues stand in square brackets, D forms with d. Residues, ends and D or L forms follow the SMILES beside them. hArg = N=C(N)NCCCC[C@H](N)C(=O)O; Mpa = O=C(O)CCS
# Key:
# [1] = system: ADP induced platelet aggregation; assay: Ex vivo platelet aggregation induced by 10 μM ADP; format: in vivo; settings: Rattus norvegicus, po, 72 h, clopidogrel 1 mg/kg, dosed orally for three days, read-out: inhibition of ADP induced platelet aggregation in platelet rich plasma
# Protocol: (§1) In this experiment, the ability of Compound A to maintain vessel patency under arterial flow conditions in ferric chloride induced thrombosis in rat carotid artery is compared to that achieved by clopidogrel. Compound A was administered by intravenous infusions and clopidogrel was dosed orally for three days. Ex vivo platelet aggregation induced by 10 μM ADP and clotting times (prothrombin time, PT and activated partial thromboplastin times, aPTT) were measured over the experimental time course (90 min) in all animals.
# This level of platelet inhibition is approximately equivalent to that attained by clopidogrel's effect on human platelets at the therapeutic dose in clinical use (75 mg per day). […] Time to occlusion was measured in animals that had vessel occlusion.
# [2] = system: ferric chloride induced thrombosis in rat carotid artery; assay: Ferric chloride induced thrombosis in rat carotid artery; format: in vivo
# [3] = system: systolic and diastolic blood pressure; assay: Telemetry blood pressure in conscious beagle dogs, three way crossover; format: in vivo
# Protocol: The study design was a three way crossover with one week between doses to ensure complete elimination of residual agents from the dogs' circulatory system. […] Data acquisition and analysis was performed using LDS Life Science Suite Ponemah P3 plus V 4.20 software with results reported as 10 minute averages for each animal.
# AUC was derived from the systolic and diastolic baseline. […] Negative values represent a decrease in blood pressure relative to the baseline value.
# [4] = system: clotting times (prothrombin time, PT and activated partial thromboplastin times, aPTT); assay: Ex vivo clotting times (PT, aPTT) in the rat thrombosis model; settings: Compound A 0.03 μM, aspirin 3 mg/kg, or both
# Protocol: as §1
# as §1, with “The combination effect of an anticoagulant and anti-platelet agent, aspirin, was investigated in an in vivo model of thrombosis. […] In” for “In”, “aspirin.” for “clopidogrel.”, “aspirin” for “clopidogrel”, “administered as an intravenous bolus approximately 30 min prior to the start of the experiment.” for “dosed orally for three days.”, “μg/mL of collagen” for “μM ADP”
# thrombin generation = assay: Thrombin generation assay in platelet rich plasma (PRP); format: biochemical, human; settings: ASA donors (aspirin for at least three days), 0 nM Compound A; normalized to Non-ASA at 0 nM
# Protocol: PRP and PPP were prepared by spinning the anticoagulated blood at ˜100×g or 1000×g for 20 minutes, respectively, at room temperature. Platelet counts in PRP were adjusted with homologous PPP to about 200,000 platelets/μL. For thrombin generation in 100 μL reaction mixture, 75 μL PRP was first mixed with CaCl2, convulxin, and Z-Gly-Gly-Arg-aminomethylcoumarin (Z-GGR-AMC, a thrombin fluorogenic substrate) for 3 minutes at 37° C., followed by adding tissue factor (Innovin, Dade Behring) to initiate the generation of thrombin. A typical reaction mixture contained 15 mM Ca^2+, 0.1 μg/mL convulxin, 100 μM Z-GGR-AMC, and 0.1 nM TF (tissue factor) (Innovin). Thrombin formation was monitored continuously at 37° C. by a fluorometric plate reader (Molecular Devices) measuring the relative fluorescence units (RFU). Inhibitors were pre-incubated with plasma for 20 minutes at room temperature before adding CaCl2 and convulxin.
# Non-ASA represents result from donors free of aspirin. ASA represents results from donors taken aspirin for at least three days. % Inhibition was calculated by normalization of mean RFU (n=5) to Non-ASA at 0 nM Compound A.
# [5] = system: collagen induced platelet aggregation; assay: Ex vivo platelet aggregation induced by 10 μg/mL of collagen; format: in vivo; settings: Rattus norvegicus
# Protocol: The combination effect of an anticoagulant and anti-platelet agent, aspirin, was investigated in an in vivo model of thrombosis. […] Ex vivo platelet aggregation induced by 10 μg/mL of collagen and clotting times (prothrombin time, PT and activated partial thromboplastin times, aPTT) were measured over the experimental time course (90 min) in all animals.
# Interleukin 8 = assay: Ex vivo cytokine release in human whole blood: interleukin 8; format: cell-based; settings: ASA treated donors, no Compound A (Control = 100.0)
# Protocol: An ex vivo assay system of human cytokine release was used to test whether inhibition of factor Xa should augment the effect of reduction of inflammation elicited by standard anti-inflammatory drugs, such as aspirin.
# At the end of the activation period, blood samples were centrifuged at 13,000 rpm (15,000 g) for 5 min in an Eppendorf 5415G centrifuge. Plasma was removed, treated with protease inhibitor cocktail (Roche) and stored frozen at −80° C. Cytokines released from the blood cells were quantitated in a Multiplexed Biomarker Immunoassay for Luminex Instrumentation (Millipore USA).
# human whole blood = assay: Real time perfusion chamber: whole blood perfused over collagen and tissue factor coated surface; format: cell-based; settings: 2.4 μM eptifibatide alone (0 nM Compound A), shear rate 300 s^−1, five donors
# Protocol: After the perfusion, the thrombotic activity was quantified by measurement of labeled fibrin produced as a result of fibrinogen cleavage during the activation of platelets and the blood coagulation system. For this series of experiments in five healthy human volunteers, blood was obtained by venipuncture and treated with 2.4 μM eptifibatide. The dose of eptifibatide corresponds to the plasma concentration attained by therapeutic concentrations of the GPIIb/IIIa inhibitor.
# [6] = system: venous thromboembolism (VTE); assay: Prospective randomized trial for prevention of venous thromboembolic events after total knee replacement; settings: Enoxaparin 30 mg bid subcutaneous, 10-14 days, n = 41
# Text: Safety endpoints included the incidence of major and clinically significant nonmajor bleeds through the day after venography. All efficacy and bleeding endpoints were adjudicated by a blinded, independent central adjudication committee.
# pooled human plasma = assay: Ex vivo clotting assays (aPTT) in pooled human plasma; format: biochemical; settings: 0.5 U/mL enoxaparin
# [7] = Dog # 1, oral, Compound A 3 mg/kg, verapamil 10 mg/kg
# [8] = Dog # 2, oral, Compound A 3 mg/kg, verapamil 10 mg/kg
# [9] = Dog # 3, oral, Compound A 3 mg/kg, verapamil 10 mg/kg
# [10] = following verapamil or placebo administration ([…]), relative to baseline
# [11] = three dogs, oral, Compound A 3 mg/kg, verapamil 10 mg/kg
compound,measurement,setting,value
"COC(=O)[C@H](c1ccccc1Cl)N1CCc2sccc2C1 [Clopidogrel, reference compound]",inhibition at 1 mg/kg,[1],46%
same,% Animals that did not occlude,"[2]; clopidogrel 0.01 mg/kg (sub-therapeutic dose), oral",10%
same,inhibition of rat thrombosis (animals that did not occlude),"[2]; clopidogrel 1 mg/kg, dosed orally for three days",89%
"COc1ccc(CCN(C)CCCC(C#N)(c2ccc(OC)c(OC)c2)C(C)C)cc1OC (stereo not drawn) [Verapamil, reference compound]",Lowest Diastolic Blood Pressure Post-Dosing,[3]; [7],65.11 mmHg
same,Lowest Systolic Blood Pressure Post-Dosing,[3]; [7],137.18 mmHg
same,Lowest Diastolic Blood Pressure Post-Dosing,[3]; [8],62.47 mmHg
same,Lowest Systolic Blood Pressure Post-Dosing,[3]; [8],111.90 mmHg
same,Lowest Diastolic Blood Pressure Post-Dosing,[3]; [9],51.94 mmHg
same,Lowest Systolic Blood Pressure Post-Dosing,[3]; [9],95.52 mmHg
same,decrease of diastolic blood pressure,"[3]; Verapamil 10 mg/kg as a single agent, within one hour of oral administration",33%
same,"Mean Area Under the Curve for Diastolic Pressure (AUCP), Mean ± S.D.",[3]; [10],−3077.8 ± 1845.51 mmHg * min.
same,"Mean Area Under the Curve for Systolic Pressure (AUCP), Mean ± S.D.",[3]; [10],−1133.6 ± 1134.7 mmHg * min.
same,"Mean Area Under the Curve for Diastolic Pressure (AUCP), Mean ± S.D.","[3]; following verapamil or placebo administration ([…]), relative to baseline, listed as verapamil",−3079±1846 mmHg * min.
same,"Lowest Diastolic Blood Pressure Post-Dosing, Mean ± S.D.",[3]; [11],59.84 ± 6.97^1 mmHg
same,"Lowest Systolic Blood Pressure Post-Dosing, Mean ± S.D.",[3]; [11],114.87 ± 20.99 mmHg
"CC(=O)Oc1ccccc1C(=O)O [aspirin, acetylsalicylic acid, reference compound]",APTT Ratio,[4],1.02
same,PT ratio,[4],1.01
same,% Inhibition of thrombin generation,thrombin generation,21.5%
same,inhibition at 1 mg/kg,[5]; aspirin 1.0 mg/kg iv bolus,< 2%
same,inhibition at 3 mg/kg,"[5]; aspirin 3 mg/kg iv bolus, read-out: inhibition of collagen induced platelet aggregation in platelet rich plasma",35%
same,inhibition at 10 mg/kg,[5]; aspirin 10 mg/kg iv bolus,77%
same,Percent Release of IL8,Interleukin 8,66.7%
same,% DNO (inhibition of rat thrombosis),"[2]; Compound A 0.03 μM iv infusion, aspirin 3 mg/kg iv bolus, or both",30%
same,animals that did not occlude,[2]; aspirin 1.0 mg/kg iv bolus,10%
same,inhibition of rat thrombosis (animals that did not occlude),[2]; aspirin 10 mg/kg iv bolus,33.3%
same,TTO (Time to occlusion),"[2]; average for animals that occluded, Compound A 0.03 μM, aspirin 3 mg/kg, or both",31.61 ± 10.91 min
same,DNO (did not occlude),"[2]; number of 10 animals, Compound A 0.03 μM iv infusion, aspirin 3 mg/kg iv bolus, or both",3
"N=C(N)NCCCC[C@@H]1NC(=O)CCSSC[C@@H](C(N)=O)NC(=O)[C@@H]2CCCN2C(=O)[C@H](Cc2c[nH]c3ccccc23)NC(=O)[C@H](CC(=O)O)NC(=O)CNC1=O [eptifibatide, reference compound] ([Mpa][hArg]GDWPC-NH2; disulfide 1-7)",Mean Fluorescence,human whole blood,118.0
Enoxaparin [reference compound],VTE %,[6],10%
same,activated partial thromboplastin time (aPTT),pooled human plasma,55 s

# From US8455440B2, “Combination anticoagulant therapy with a compound that acts as a factor Xa inhibitor” (Millennium Pharmaceuticals, Inc., priority 2007, dated 2013)
